From patent US12667572B2, “Tricyclic compounds useful in the treatment of cancer, autoimmune and inflammatory disorders” (SCHRÖDINGER, INC., priority 2021, dated 2026)

Target: T1, full-length MALT1 protein His-MALT1(1-824) (Homo sapiens, UniProt Q9UDY8)
T1 construct: full-length MALT1 protein His-MALT1(1-824); His (N); made in house; host or cells: baculovirus-infected insect cells
T1 sequence (Q9UDY8 1-824): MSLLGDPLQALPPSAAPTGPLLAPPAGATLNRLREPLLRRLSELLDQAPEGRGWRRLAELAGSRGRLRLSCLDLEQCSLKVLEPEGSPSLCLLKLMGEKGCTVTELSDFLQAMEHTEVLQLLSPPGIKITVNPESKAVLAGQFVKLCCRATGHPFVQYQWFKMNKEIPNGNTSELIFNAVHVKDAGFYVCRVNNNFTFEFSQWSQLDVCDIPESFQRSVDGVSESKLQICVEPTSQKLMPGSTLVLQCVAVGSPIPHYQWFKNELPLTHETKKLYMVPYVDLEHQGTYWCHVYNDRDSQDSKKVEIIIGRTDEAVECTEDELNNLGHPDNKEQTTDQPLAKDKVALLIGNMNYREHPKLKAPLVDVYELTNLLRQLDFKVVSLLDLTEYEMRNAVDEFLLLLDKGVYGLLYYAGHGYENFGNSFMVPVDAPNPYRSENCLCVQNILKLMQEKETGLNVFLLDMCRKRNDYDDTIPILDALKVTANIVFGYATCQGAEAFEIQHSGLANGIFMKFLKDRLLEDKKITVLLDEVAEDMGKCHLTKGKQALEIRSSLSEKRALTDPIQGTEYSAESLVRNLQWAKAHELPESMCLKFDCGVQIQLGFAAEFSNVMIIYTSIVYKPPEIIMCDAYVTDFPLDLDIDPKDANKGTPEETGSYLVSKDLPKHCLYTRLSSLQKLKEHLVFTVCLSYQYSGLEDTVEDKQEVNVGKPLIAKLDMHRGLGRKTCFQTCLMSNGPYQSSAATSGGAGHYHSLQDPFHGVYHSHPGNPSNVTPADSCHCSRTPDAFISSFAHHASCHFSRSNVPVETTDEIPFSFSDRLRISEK
Test: MALT1 protease assay, Assay 2 (1 nM MALT1, Ac-LRSR-AMC substrate)
Format: biochemical
Conditions: 1 nM MALT1, 50 μM Ac-LRSR-AMC, 2 h pre-incubation, 8 hr incubation at RT
Description: MALT1 protease activity was assessed in an in vitro assay using a tetrapeptide as substrate and full-length MALT1 protein His-MALT1(1-824) purified from baculovirus-infected insect cells. The tetrapeptide substrate is Ac-LRSR-AMC (SM Biochemicals) with Km measured at around 100 μM.
The final assay buffer includes 1 nM (Assay 2) or 2 nM (Assay 1) of MALT1 full-length protein, 50 μM Ac-LRSR-AMC substrate, 50 mM Tris pH 7.5, 600 mM Sodium Citrate, 1 mM DTT, 1 mM EDTA, and 0.05% BSA in 384-well plate format using black microtiter square well plates (Optiplate 384-F, Perkin Elmer).
Test compounds were dissolved in 100% DMSO at stock of 10 mM, with final DMSO concentration 0.1%. Test compounds were pre-incubated with MALT1 protein for 2 h at room temperature. Substrate was added after the pre-incubation and fluorescence signal was measured using Envision at excitation 355 nm and emission 460 nm after 8 hr incubation at RT. Increase in the assay signal was linear over this period and proportional with increase in the enzyme content.
The fluorescence units were transformed to percentage of remaining activity by using the high control (HC, median of fluorescence signal from wells containing MALT1 protein, substrate, and DMSO) and low control (LC, median of fluorescence signal from wells with substrate only) with the formula below: […]
IC50 and Hill coefficients were obtained using Graph Pad Prism (Graph Pad software, Inc, USA) with non-linear regression analysis.

| Structure (SMILES) | IC50 |
| --- | --- |
| CC1(C)CC(C(=O)Nc2ccnc(C(F)(F)F)c2)c2cnc3cc(C(F)F)nn3c21 (single isomer, unassigned) [Example 99, 2-(difluoromethyl)-8,8-dimethyl-N-(2-(trifluoromethyl)pyridin-4-yl)-7,8-dihydro-6H-cyclopenta[e]pyrazolo[1,5-a]pyrimidine-6-carboxamide] | 100 to 1000 nM |
| Cc1cc(NC(=O)C2CC(C)(C)c3c2cnc2cc(F)nn32)cnc1-c1cnn(C)c1 (stereo not shown) [Example 178, 2-fluoro-8,8-dimethyl-N-(5-methyl-6-(1-methyl-1H-pyrazol-4-yl)pyridin-3-yl)-7,8-dihydro-6H-cyclopenta[e]pyrazolo[1,5-a]pyrimidine-6-carboxamide] | ≥ 1000 nM |
| CC1(C)C[C@@H](C(=O)Nc2cnc(-n3nccn3)c(Cl)c2)c2cnn3cc(C(F)F)nc3c21 (single isomer, unassigned) [Example 202, N-(5-chloro-6-(2H-1,2,3-triazol-2-yl)pyridin-3-yl)-2-(difluoromethyl)-9,9-dimethyl-8,9-dihydro-7H-cyclopenta[d]imidazo[1,2-b]pyridazine-7-carboxamide] | 100 to 1000 nM |
| Cc1nnn(-c2ncc(NC(=O)C3CC(C)(C)c4c3cnc3cc(Cl)nn43)cc2Cl)n1 (single isomer, unassigned) [Example 141, 2-chloro-N-(5-chloro-6-(5-methyl-2H-tetrazol-2-yl)pyridin-3-yl)-8,8-dimethyl-7,8-dihydro-6H-cyclopenta[e]pyrazolo[1,5-a]pyrimidine-6-carboxamide] | ≥ 1000 nM |
| COc1cnc(C(F)(F)F)cc1NC(=O)C1CC(C)(C)c2c1cnc1cc(F)nn21 (single isomer, unassigned) [Example 93, 2-fluoro-N-(5-methoxy-2-(trifluoromethyl)pyridin-4-yl)-8,8-dimethyl-7,8-dihydro-6H-cyclopenta[e]pyrazolo[1,5-a]pyrimidine-6-carboxamide] | ≥ 1000 nM |
| CC1(C)C[C@@H](C(=O)Nc2cnc(OC(F)F)c(Cl)c2)c2cnn3cc(Cl)nc3c21 (single isomer, unassigned) [Example 190, 2-chloro-N-(5-chloro-6-(difluoromethoxy)pyridin-3-yl)-9,9-dimethyl-8,9-dihydro-7H-cyclopenta[d]imidazo[1,2-b]pyridazine-7-carboxamide] | 100 to 1000 nM |
| CC1(C)CC(C(=O)Nc2cc(C#N)c(OC(F)F)nn2)c2cnc3cc(F)nn3c21 (stereo not shown) [Example 85, N-(5-cyano-6-(difluoromethoxy)pyridazin-3-yl)-2-fluoro-8,8-dimethyl-7,8-dihydro-6H-cyclopenta[e]pyrazolo[1,5-a]pyrimidine-6-carboxamide] | 100 to 1000 nM |
| CC1(C)CC(C(=O)Nc2cnc(OC(F)F)c(C#N)n2)c2cnc3cc(F)nn3c21 (single isomer, unassigned) [Example 87, N-(6-cyano-5-(difluoromethoxy)pyrazin-2-yl)-2-fluoro-8,8-dimethyl-7,8-dihydro-6H-cyclopenta[e]pyrazolo[1,5-a]pyrimidine-6-carboxamide] | ≥ 1000 nM |
| CC1(C)CC(C(=O)Nc2cnc(OC3CC3)c(Cl)c2)c2cnc3cc(Cl)nn3c21 (single isomer, unassigned) [Example 74, 2-chloro-N-(5-chloro-6-cyclopropoxypyridin-3-yl)-8,8-dimethyl-7,8-dihydro-6H-cyclopenta[e]pyrazolo[1,5-a]pyrimidine-6-carboxamide] | ≥ 1000 nM |
| CC1(C)CC(C(=O)Nc2cnc(-n3nccn3)c(Cl)c2)c2cnn3cc(C(F)F)nc3c21 (single isomer, unassigned) [Example 203, N-(5-chloro-6-(2H-1,2,3-triazol-2-yl)pyridin-3-yl)-2-(difluoromethyl)-9,9-dimethyl-8,9-dihydro-7H-cyclopenta[d]imidazo[1,2-b]pyridazine-7-carboxamide] | 10 to 100 nM |
| CC1(C)C[C@@H](C(=O)Nc2cnc(-n3nccn3)c(C(F)(F)F)c2)c2cnn3cc(Cl)nc3c21 (single isomer, unassigned) [Example 192, N-(6-(2H-1,2,3-triazol-2-yl)-5-(trifluoromethyl)pyridin-3-yl)-2-chloro-9,9-dimethyl-8,9-dihydro-7H-cyclopenta[d]imidazo[1,2-b]pyridazine-7-carboxamide] | 100 to 1000 nM |

Next, values leading:

| IC50 | Structure (SMILES) |
| --- | --- |
| ≥ 1000 nM | CC1(C)CC(C(=O)Nc2cnc(N3CCCC3=O)c(Cl)c2)c2cnc3cc(F)nn3c21 (stereo not shown) [Example 175, N-(5-chloro-6-(2-oxopyrrolidin-1-yl)pyridin-3-yl)-2-fluoro-8,8-dimethyl-7,8-dihydro-6H-cyclopenta[e]pyrazolo[1,5-a]pyrimidine-6-carboxamide] |
| 100 to 1000 nM | CC(C)(O)c1ncc(NC(=O)[C@H]2CC3(CCC3)c3c2cnc2cc(F)nn32)cc1C(F)(F)F (single isomer, unassigned) [Example 152, 2′-fluoro-N-(6-(2-hydroxypropan-2-yl)-5-(trifluoromethyl)pyridin-3-yl)-6′,7′-dihydrospiro[cyclobutane-1,8′-cyclopenta[e]pyrazolo[1,5-a]pyrimidine]-6′-carboxamide] |
| 10 to 100 nM | CC1(C)C[C@@H](C(=O)Nc2cnc(-n3ncc(C4COC4)n3)c(Cl)c2)c2cnc3cc(Cl)nn3c21 (single isomer, unassigned) [Example 110, 2-chloro-N-(5-chloro-6-(4-(oxetan-3-yl)-2H-1,2,3-triazol-2-yl)pyridin-3-yl)-8,8-dimethyl-7,8-dihydro-6H-cyclopenta[e]pyrazolo[1,5-a]pyrimidine-6-carboxamide] |
| ≥ 1000 nM | C[C@@H](O)c1cnn(-c2ncc(NC(=O)[C@@H]3CC4(CCC4)c4c3cnc3cc(Cl)nn43)cc2Cl)n1 (single isomer, unassigned) [Example 161] |
| ≥ 1000 nM | O=C(Nc1cnc(C(O)C(F)F)c(Cl)c1)C1CC2(CCC2)c2c1cnc1cc(F)nn21 (single isomer, unassigned) [Example 134, N-(5-chloro-6-(2,2-difluoro-1-hydroxyethyl)pyridin-3-yl)-2′-fluoro-6′,7′-dihydrospiro[cyclobutane-1,8′-cyclopenta[e]pyrazolo[1,5-a]pyrimidine]-6′-carboxamide] |
| 100 to 1000 nM | C[C@@]1(C(F)(F)F)C[C@@H](C(=O)Nc2cnc(-n3nccn3)c(C(F)F)c2)c2cnc3cc(Cl)nn3c21 (single isomer, unassigned) [Example 65, 2-chloro-N-(5-(difluoromethyl)-6-(2H-1,2,3-triazol-2-yl)pyridin-3-yl)-8-methyl-8-(trifluoromethyl)-7,8-dihydro-6H-cyclopenta[e]pyrazolo[1,5-a]pyrimidine-6-carboxamide] |
| ≥ 1000 nM | O=C(Nc1cnc(-n2nccn2)c(Cl)c1)C1CC2(CCC2)c2c1cnc1cc(F)nn21 (single isomer, unassigned) [Example 109, N-(5-chloro-6-(2H-1,2,3-triazol-2-yl)pyridin-3-yl)-2′-fluoro-6′,7′-dihydrospiro[cyclobutane-1,8′-cyclopenta[e]pyrazolo[1,5-a]pyrimidine]-6′-carboxamide] |
| 10 to 100 nM | N#Cc1cc(NC(=O)C2CC3(CC3)c3c2cnc2cc(F)nn32)cnc1OC(F)F (stereo not shown) [Example 82, N-(5-cyano-6-(difluoromethoxy)pyridin-3-yl)-2-fluoro-6,7-dihydrospiro[cyclopenta[e]pyrazolo[1,5-a]pyrimidine-8,1′-cyclopropane]-6-carboxamide] |
